From patent US5756510A, “Benzamide analogs useful as PARP (ADP-ribosyltransferase, ADPRT) DNA repair enzyme inhibitors” (Newcastle University Ventures Limited, priority 1994, dated 1998) come the findings set out here.

One data set has as its target T1, PARP (Mus musculus, UniProt P11103).
T1 construct: endogenous in cells; host or cells: L1210 murine leukaemia cells, permeabilised by hypotonic buffer and cold shock
Nature of the data set: PARP inhibition assay ([32P]-NAD incorporation into TCA-precipitated poly(ADP-ribose) in permeabilised L1210 cells, oligonucleotide activated). The following applies: read-out: % Inhibition (PARP). In kind it is biochemical, L1210 murine leukaemia cells. The text has this: In principle, the PARP assay used relies upon activating endogenous PARP (as hereinafter described) in cells containing exogenous [^32 P]-NAD^+ introduced therein by suspending the cells in a solution of [^32 P]-NAD^+ to which they have been rendered permeable in an initial pretreatment step. The poly(ADP-ribose) which is then synthesised by the enzyme can be precipitated by trichloracetic acid (TCA) and the amount of radio-labelled ^32 p incorporated therein measured, e.g. using a scintillation counter, to give a measure of the activity of the PARP under the particular conditions of the experiment. By repeating the experiment following the same procedure, and under the same conditions, in the presence of each compound to be tested the reduction in enzyme activity, representative of the inhibitory effect of the test compound, can then be ascertained from the reduction, if any, of the amount of [^32 P] measured in the TCA precipitated poly(ADP-ribose).
Thus, with a range of different compounds a set of comparative values for inhibitory activity can be obtained.
In practice, L1210 murine leukaemia cells were used as the source of the PARP enzyme after being rendered permeable to exogenous [^32 P]NAD by exposure to hypotonic buffer and cold shock. […] This oligonucleotide sequence snaps back on itself to form a double-stranded molecule with a single blunt end and provides an effective substrate for activation of PARP.
The experimental protocol adopted, in which a synthetic oligonucleotide as mentioned above is introduced as a specific activator of PARP, discriminates between PARP and other mono-ADP-ribosyltransferases in the cells.
The oligonucleotide having the palindromic sequence […], synthesised by conventional means, was vacuum dried and stored as pellets in a freezer. Before use, it was made up to 200 μg/ml in 10 mM Tris/HCl, pH 7.8, with each pellet being dissolved completely in […] of buffer. The solution was then heated to 60° C. in a water bath for 15 minutes, and allowed to cool slowly to ensure correct reannealing. After adding 9.5 ml of buffer, the concentration was checked by measuring the optical density of a diluted sample at 260 nm. The main solution was then diluted to a concentration of 200 μg/ml and stored in 500 μl aliquots in a freezer, ready for use.
The L1210 cells used as the source of the PARP enzyme were maintained as a suspension culture in RPMI medium+10% foetal bovine serum+glutamine and antibiotics (penicillin and streptomycin). HEPES and sodium bicarbonate were also added, and the cells were seeded in 100 ml of medium such that there would be a concentration of approximately 8×10^5 /ml at the time of carrying out an assay.
The solubility of the compound was then checked by adding a quantity of the DMSO solution to a quantity of the isotonic buffer, in the required final proportions that were to be used in carrying out the assay, and after an interval the solution was examined under a microscope for any signs of crystals forming.
A desired quantity of the cells, ascertained by counting with a haemocytometer, was then centrifuged (1500 rpm in a "Europa" model 24M centrifuge for 5 minutes), the supernatant removed, and the pellets obtained were resuspended in 20 ml Dul A at 4° C. before centrifuging again at 1500 rpm and 4° C. After again removing the supernatant, the cells were resuspended at a concentration of 3×10^7 cells/ml in ice cold hypotonic buffer and left for 30 minutes on ice. Nine volumes were then added of ice cold isotonic buffer, and the cells, now rendered permeable to exogenous NAD^+, were then used within the next hour for carrying out an assay.

Data set [1] has as its system L1210 cells. Nature of the data set: growth inhibition assay, alone or with temozolomide. It is filed as cell-based, murine. Particulars: Mus musculus, L1210, 48 h. The protocol:
(§1) Again using cultures of the murine leukaemia L1210 cell line, growth inhibition experiments were carried out to assess the cytostatic effects of the compounds and clonogenic survival assays were performed to assess cytotoxicity, especially in relation to use of the compounds in conjunction with DNA damaging cytotoxic agents such as cytotoxic antitumour drugs or high energy radiation.
At this time one set of replicates would be counted using a Coulter counter (N0), and 48 hours later the remaining samples would be counted (N1). The percentage (%) growth inhibition of drug-treated samples could then be estimated. In drug combination experiments, where evidence of synergistic effects on cell growth or clonogenicity was being sought, a single, fixed concentration of a cytotoxic drug sample, e.g. temozolomide, would be taken as the control value.

Data set [2] relates to L1210 cells. Nature of the data set: clonogenic survival assay with temozolomide (TM). Particulars: for DEF10 (TM): 16 hours, ± S.E. The protocol: as §1
After 7-10 days colonies were stained with 0.5 mg/ml MTT and counted by eye on a gridded light box. Survival curves were plotted and typical DEF10 values obtained are hereinafter given in Table II (DEF10 being defined as the ratio of the concentration of TM that reduces survival to 10% divided by the concentration of TM that reduces survival to 10% in the presence of a fixed concentration of PARP inhibitor). Each DEF10 value in Table II represents the average ratio±S.E. (standard error) derived from the averaged 10% survival for TM alone (675±31 μM from 22 independent survival curves) divided by individual 10% survival values from at least 3 independent survival curves performed in the presence of a fixed concentration of inhibitor.
For NU1025 maximal potentiation of cytotoxicity was obtained by a concentration in the range of 50-100 μM, and was significant at doses as low as 10 μM.

Data set [3] deals with L1210 cells. As to the kind of experiment: repair of potentially lethal damage (PLD) after gamma ray irradiation. It is filed as cell-based, murine. The following applies: 8 Gray gamma ray; 10 mM 3AB or 200 μM NU1025. The protocol:
Repair of potentially lethal damage (PLD) occurs when cells are held in stationary-phase following initiation of PLD prior to allowing cell division to take place. In further typical experiments, L1210 cells were allowed to repair gamma ray PLD in the presence or absence of 3AB or NU1025 as follows. L1210 cells were maintained in culture until they had attained stationary phase (>10^6 cells/ml). They were diluted to […] in conditioned medium from stationary-phase cultures to prevent further cell division. Replicate 2 ml samples of cells in plastic bijoux were held on ice prior to and immediately following 8 Gray gamma ray irradiation. 1 ml of 3x final concentration of compounds 3AB or NU1025 made up in conditioned medium from stationary cultures was added (to give final concentrations of 10^6 cells/ml in 1% DMSO ±10 mM 3AB or 200 μM NU1025) and the cells were incubated at 37° C. for 0, 2 or 4 hours prior to resuspending in drug-free medium and seeding for colony formation. Unirradiated stationary phase cultures incubated at 37° C. for 0, 2 or 4 hours with 1% DMSO ±10 mM 3AB or 200 μM NU1025 were used as appropriate controls for determining relative cell survival. In the absence of PARP inhibitor cell survival increased with time allowed for PLD repair to take place. […]

A further data set can be described thus: in vitro. Particulars: mouse, l1210 cells. The protocol: as §1
The subject of data set [4] is DNA strand breaks in L1210 cells. Nature of the data set: DNA strand break assay (alkaline elution). In kind it is cell-based, murine. The following applies: for effect on DNA strand break levels, compound alone: 24 hour incubation. The protocol:
as §1
All the compounds were tested for their ability to produce strand breaks when used alone.

Data set [5] can be described thus: half life of temozolomide in culture. In kind it is physicochemical.
[6] abbreviates: read-out: IC50 INHIBITOR + 100 μM TM (growth inhibition).
The mark [7] stands for this setting: read-out: IC50 INHIBITOR ALONE (growth inhibition).

A value given as a limit tells only on which side of the number the result lay.

T1 sequence (P11103 whole entry): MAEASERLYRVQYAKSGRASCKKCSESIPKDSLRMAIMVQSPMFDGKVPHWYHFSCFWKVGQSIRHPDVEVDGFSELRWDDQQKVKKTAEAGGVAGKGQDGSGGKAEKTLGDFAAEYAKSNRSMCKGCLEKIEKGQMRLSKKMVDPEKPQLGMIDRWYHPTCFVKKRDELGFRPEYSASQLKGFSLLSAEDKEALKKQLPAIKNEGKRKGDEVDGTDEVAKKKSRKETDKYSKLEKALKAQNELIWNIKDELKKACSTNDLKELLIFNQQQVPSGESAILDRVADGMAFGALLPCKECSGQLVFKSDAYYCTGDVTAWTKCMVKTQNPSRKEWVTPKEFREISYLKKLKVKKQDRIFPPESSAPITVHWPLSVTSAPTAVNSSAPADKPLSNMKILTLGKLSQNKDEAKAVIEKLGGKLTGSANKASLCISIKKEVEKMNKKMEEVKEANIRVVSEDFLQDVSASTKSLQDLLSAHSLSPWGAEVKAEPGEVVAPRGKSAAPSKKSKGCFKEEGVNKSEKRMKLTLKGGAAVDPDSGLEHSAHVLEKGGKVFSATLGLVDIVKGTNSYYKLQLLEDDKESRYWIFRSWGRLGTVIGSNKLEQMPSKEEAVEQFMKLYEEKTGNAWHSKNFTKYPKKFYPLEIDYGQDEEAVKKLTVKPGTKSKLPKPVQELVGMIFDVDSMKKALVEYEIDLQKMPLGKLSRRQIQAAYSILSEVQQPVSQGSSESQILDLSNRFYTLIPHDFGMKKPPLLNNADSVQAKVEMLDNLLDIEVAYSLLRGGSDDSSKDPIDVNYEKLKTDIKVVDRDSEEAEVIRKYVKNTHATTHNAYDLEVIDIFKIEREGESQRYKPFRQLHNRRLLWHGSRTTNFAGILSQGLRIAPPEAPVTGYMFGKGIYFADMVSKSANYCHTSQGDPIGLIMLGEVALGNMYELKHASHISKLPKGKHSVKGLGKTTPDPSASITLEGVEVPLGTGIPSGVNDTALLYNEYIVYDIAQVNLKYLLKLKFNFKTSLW

As usually defined, the inhibition is the relative decrease from the control value, in per cent. As a reminder, the CC50 is the concentration at which the toxic effect on the cells reaches its halfway point. As for `NC(=O)c1cccc(N)c1` [3-aminobenzamide], the inhibition at 10 µM at PARP (10 μM) worked out at 36%. At PARP (30 μM), the inhibition at 30 µM came to 63%. Besides, the inhibition at 100 µM at PARP (100 μM) is 79%. The values for the IC50 in the data set with L1210 cells [1] (setting [6]) and with L1210 cells [1] (setting [7]) were 2500 ± 100 µM and 6700 ± 200 µM, respectively. Moreover, the “DEF10 (TM)” value in the data set on L1210 cells [2] (1 mM inhibitor) was 2.4 ± 0.3; in the data set with L1210 cells [2] (5 mM inhibitor) it was 4.1 ± 0.4; in the data set on L1210 cells [2] (5 mM inhibitor, listed as 3AB), “about 4”. The “effect on PLD repair in words” value in the data set on L1210 cells [3] was “blocked this repair”. The CC50 at 24 h in the data set “in vitro” worked out at 14000 ± 1000 µM. Further, in data set [4] (150 μM TM, 1 hour), the “concentration above which strand breakage with TM increases significantly” value is > 5 mM. Besides, the “effect on DNA strand break levels, compound alone” value in data set [4] (20 mM) was “no significant effect on DNA strand break levels”.

For `Cc1nc2c(O)cccc2c(=O)[nH]1` [NU1025, 8-Hydroxy-2-methylquinazolin-4-[3H]-one], the IC50 was found to be 40 µM in the data set with L1210 cells [1] (setting [6]) and 410 µM in the data set with L1210 cells [1] (setting [7]). For the same compound, the “DEF10 (TM)” value is on record as 2.0 ± 0.2 in the data set with L1210 cells [2] (10 μM inhibitor) and 5.1 ± 0.7 in the data set on L1210 cells [2] (100 μM inhibitor). Further, the “effect on PLD repair in words” value with L1210 cells [3] was “blocked this repair”. The same compound returned a CC50 at 24 h in the data set “in vitro” of 1600 ± 100 µM. Moreover, in data set [4] (1 mM), the “effect on DNA strand break levels, compound alone” value is listed as “no significant effect on DNA strand break levels”.

By half-life is commonly meant the time needed for the level to fall by half in the phase considered. Higher therefore signals slow loss. As to `Cn1nnc2c(C(N)=O)ncn2c1=O` [TM, temozolomide], the IC50 in the data set on L1210 cells [1] (read-out: IC50 of TM alone (inhibition of cell growth)) worked out at 361 ± 25 µM; with L1210 cells [2] (Mus musculus, L1210, 16 h, read-out: LD50 of TM alone), 251 ± 13 µM. Besides, the IC90 with L1210 cells [2] (Mus musculus, L1210, 16 h, read-out: concentration of TM alone that reduces survival to 10%) came to 675 ± 31 µM. The cytotoxicity at 150 µM in the data set with L1210 cells [2] (Mus musculus, L1210, read-out: reduction of survival) is ~30%. For the same compound, in data set [4] (Mus musculus, L1210, 1 h, read-out: lowest TM level with detectable changes in DNA strand break levels), the minimal effective concentration was 150 µM. In addition, the “rate of elution (DNA strand breakage) in words” value in data set [4] (TM, 1 hour treatment) is reported as “concentration-dependent increase in the rate of elution”. The half-life in data set [5] was ~40 min.
